Key:
Akt1 = biological target: T1, Akt1 (Homo sapiens, UniProt P31749); assay: Akt1 kinase inhibition, LANCE TR-FRET; format: biochemical
T1 construct: purchased life technology lot11629928C (lot number only, catalogue number not given)
Procedure: (§1) Study 1: The Inhibitory Effect of the Compounds on the Activity of Akt1, Akt2 and Akt3
Akt1 protein (life technology # lot11629928C)
(§2) In this experiment, a homogeneous time-resolved fluorescence […] energy transfer (LANCE TR-FRET®) method was used. In the assay plate, enzymes, biotinylated polypeptide substrates and compound to be tested were mixed, and ATP was added to initiate the reaction and the mixture was incubated. After that, EDTA was added to terminate the reaction while an Eu-labeled antibody was added to carry out the reaction and the reaction was then detected. The assay plate was analyzed by PE company's Envision, and the analysis mode was TR-FRET. The data were represented by fluorescence signals at 665 nm and 615 nm, respectively.
(§3) Compound formulation: compound to be tested and the reference compound were diluted with 100% DMSO, the initial concentration of the compound was 10 uM, and diluted by 10 times in a 3-fold gradient. Transfer the compound to the cell plate and duplicate each well.
(§4) Kinase assay: the enzyme and substrate were mixed with different concentrations of pre-diluted compounds. […] Leave at room temperature for 15 min and diplicate each concentration. ATP was added, and the final concentrations were 36 uM, 360 uM and 160 uM in Akt1, Akt2, and Akt3 kinase reactions, respectively, and the reaction was carried out for 90 min at room temperature (in which negative and positive controls were set). After the reaction was completed, the antibody was added and the mixture was detected, and the cells were incubated for 60 min at room temperature, and then collected by Evnvision. Data analysis and fitting according to *Lfit5 software.

LNCaP cells = assay: LNCaP cell activity, CellTiter-Glo live cell detection; format: cell-based; conditions: Homo sapiens, 72 h, 1000 cells per well, incubated 3 days, starting concentration 10 uM
Procedure: Study 2: inhibitory effects of compounds on LNCaP cell activity
The amount of ATP directly reflects the number and the state of the cells, and the number of live cells can be detected by quantitatively measuring ATP. The live cell assay kit contains luciferase and its substrate. Through the participation of ATP, luciferase can catalyze the substrate, emit a stable optical signal, and the amount of ATP in the cell was determined by detecting the intensity of the signal. Wherein, the optical signal is proportional to the amount of ATP in the cell, and ATP is positively correlated with the number of live cells, so that the cell proliferation can be detected. The assay board is analyzed by PE company's Envision.
LNCaP cell was separately seeded in a 384-well plate, each well contains 1000 cells. The cell plate was placed in a carbon dioxide incubator and incubated overnight.
A duplicated experiment was performed with 10 concentrations of compound in a 3-fold dilution with Bravo.
Compound was transferred to the cell plate with a starting concentration of 10 uM. The cell plate was incubated in a carbon dioxide incubator for 3 days.
The Promega CellTiter-Glo reagent was added to the cell plate and incubated for 10 min at room temperature to stabilize the optical signal. Read the data by a PerkinElmer Envision multi-label analyzer.

Akt2 = biological target: T2, Akt2 (Homo sapiens, UniProt P31751); assay: Akt2 kinase inhibition, LANCE TR-FRET; format: biochemical; conditions: Akt2 2 nM, ATP 360 uM, 90 min at room temperature
T2 construct: purchased life technology lot 28870GG (lot number only, catalogue number not given)
Procedure: as §1
Akt2 protein (life technology # lot 28870GG)
as §2, §3, §4

Akt3 = biological target: T3, Akt3 (Homo sapiens, UniProt Q9Y243); assay: Akt3 kinase inhibition, LANCE TR-FRET; format: biochemical; conditions: Akt3 2 nM, ATP 160 uM, 90 min at room temperature
T3 construct: purchased life technology lot 1715050B (lot number only, catalogue number not given)
Procedure: as §1
Akt3 protein (life technology # lot 1715050B)
as §2, §3, §4

T2 sequence (P31751 whole entry): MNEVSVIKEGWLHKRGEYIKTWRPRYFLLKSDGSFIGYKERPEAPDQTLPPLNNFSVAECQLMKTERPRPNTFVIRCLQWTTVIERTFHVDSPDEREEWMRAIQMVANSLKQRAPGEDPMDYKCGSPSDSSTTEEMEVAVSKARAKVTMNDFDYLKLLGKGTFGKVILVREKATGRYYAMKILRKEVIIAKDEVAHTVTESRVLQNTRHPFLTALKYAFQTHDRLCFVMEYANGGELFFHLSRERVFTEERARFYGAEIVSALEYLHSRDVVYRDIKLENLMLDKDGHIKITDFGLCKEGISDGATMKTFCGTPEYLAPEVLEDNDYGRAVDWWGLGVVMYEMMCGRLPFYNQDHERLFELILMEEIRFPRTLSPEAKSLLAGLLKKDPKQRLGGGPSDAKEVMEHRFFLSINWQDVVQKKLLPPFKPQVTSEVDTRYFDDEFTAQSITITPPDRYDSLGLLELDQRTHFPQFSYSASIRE
T1 sequence (P31749 whole entry): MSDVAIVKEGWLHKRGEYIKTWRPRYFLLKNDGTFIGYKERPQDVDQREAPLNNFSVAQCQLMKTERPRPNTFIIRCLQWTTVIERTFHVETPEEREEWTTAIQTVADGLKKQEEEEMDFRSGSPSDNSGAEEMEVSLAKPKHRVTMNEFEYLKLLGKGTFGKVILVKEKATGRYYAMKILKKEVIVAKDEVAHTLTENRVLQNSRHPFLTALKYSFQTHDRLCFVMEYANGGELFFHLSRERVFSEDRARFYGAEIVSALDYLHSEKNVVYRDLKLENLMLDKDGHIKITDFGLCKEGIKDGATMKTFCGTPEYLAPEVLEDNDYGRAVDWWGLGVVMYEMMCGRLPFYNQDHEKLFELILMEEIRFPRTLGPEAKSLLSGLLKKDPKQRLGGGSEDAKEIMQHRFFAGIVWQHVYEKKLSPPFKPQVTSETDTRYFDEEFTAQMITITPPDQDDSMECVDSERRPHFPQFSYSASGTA
T3 sequence (Q9Y243 whole entry): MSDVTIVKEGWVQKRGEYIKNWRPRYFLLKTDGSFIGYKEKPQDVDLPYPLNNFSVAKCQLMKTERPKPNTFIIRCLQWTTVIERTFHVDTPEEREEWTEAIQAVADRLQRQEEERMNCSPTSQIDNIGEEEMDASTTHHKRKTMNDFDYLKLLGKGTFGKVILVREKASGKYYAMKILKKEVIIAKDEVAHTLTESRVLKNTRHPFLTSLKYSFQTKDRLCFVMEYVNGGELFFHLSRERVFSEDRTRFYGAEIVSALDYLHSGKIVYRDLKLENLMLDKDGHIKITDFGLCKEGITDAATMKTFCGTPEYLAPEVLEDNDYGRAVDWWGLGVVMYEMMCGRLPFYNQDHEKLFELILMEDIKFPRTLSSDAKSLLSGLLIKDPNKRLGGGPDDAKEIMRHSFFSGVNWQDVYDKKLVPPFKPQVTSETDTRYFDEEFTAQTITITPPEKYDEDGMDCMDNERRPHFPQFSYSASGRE

IC50 (Akt1) [µM]	IC50 (LNCaP cells) [µM]	IC50 (Akt2) [µM]	IC50 (Akt3) [µM]	SMILES
0.00036	0.118	0.057	0.068	NC[C@H](Cc1ccc(F)c(F)c1)NC(=O)c1cc2c(s1)OCCn1ncc(Cl)c1-2 [Embodiment 38]
0.0015	0.144	0.076	0.122	Cc1cnn2c1-c1cc(C(=O)N[C@H](CN)Cc3ccc(F)c(F)c3)sc1OCC2 [Embodiment 39]
0.0275	0.663	0.9	0.416	N#Cc1cnn2c1-c1cc(C(=O)N[C@H](CN)Cc3ccc(F)c(F)c3)sc1OCC2 [Embodiment 42]

Continued, compound first:

SMILES	IC50 (Akt1) [µM]	IC50 (LNCaP cells) [µM]	IC50 (Akt2) [µM]	IC50 (Akt3) [µM]
Cc1cnn2c1-c1cc(C(=O)N[C@H](CN)Cc3cc(F)cc(F)c3)sc1OCC2 [Embodiment 40]	0.00087	0.087	0.066	0.17
NC[C@H](Cc1cc(F)cc(F)c1)NC(=O)c1cc2c(s1)OCCn1ncc(Br)c1-2 [Embodiment 41]	0.00145	0.062	0.039	0.057

Source: patent US10654868B2, “Dihydropyrazole azepine compound serving as Akt inhibitor” (HARBIN ZHENBAO PHARMACEUTICAL CO., LTD., priority 2016, dated 2020)
